Assay results published in ChEMBL document CHEMBL1201862, “PubChem BioAssay data set” (2004).
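Five concentrations, 48 hours, 96-well plates. GI50 = concentration required for 50% inhibition of growth.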 Calls of active or inactive are those of the source. Rule as the data show it: active = GI50 up to about 1.1 µM and inactive = higher.

Experiments:
Assay in all cases: NCI tumour cell line growth inhibition, 48 h
[1] = system: 786-0
[2] = system: A498
[3] = system: A549
[4] = system: ACHN
[5] = system: BT-549
[6] = system: CAKI-1
[7] = system: CCRF-CEM
[8] = system: COLO 205
[9] = system: DU-145
[10] = system: EKVX
[11] = system: HCT-15
[12] = system: HOP-62
[13] = system: HOP-92
[14] = system: Hs-578T
[15] = system: IGROV-1
[16] = system: K562
[17] = system: KM12
[18] = system: LOX IMVI
[19] = system: M14
[20] = system: MCF7
[21] = system: MDA-MB-231
[22] = system: MDA-MB-435
[23] = system: MOLT-4
[24] = system: Malme-3M
[25] = system: NCI-H226
[26] = system: NCI-H23
[27] = system: NCI-H522
[28] = system: NCI/ADR-RES
[29] = system: OVCAR-3
[30] = system: OVCAR-4
[31] = system: OVCAR-5
[32] = system: OVCAR-8
[33] = system: PC-3
[34] = system: RPMI-8226
[35] = system: RXF 393
[36] = system: SF-268
[37] = system: SF-295
[38] = system: SK-MEL-28
[39] = system: SK-MEL-2
[40] = system: SK-MEL-5
[41] = system: SK-OV-3
[42] = system: SN12C
[43] = system: SNB-19
[44] = system: SNB-75
[45] = system: SR
[46] = system: SW-620
[47] = system: T47D
[48] = system: TK-10
[49] = system: U-251
[50] = system: UACC-257
[51] = system: UO-31
[52] = system: HCT-116
[53] = system: HT-29
[54] = system: NCI-H460
[55] = system: SF-539
[56] = system: UACC-62
[57] = system: HCC 2998
[58] = system: HL-60

C=CCn1c(-c2ccc(/N=N/Nc3ccc(-c4n[nH]c(=S)n4CC=C)cc3)cc2)n[nH]c1=S
GI50 [1]: 8.41 µM (inactive)
GI50 [2]: > 100 µM (inactive)
GI50 [3]: 3.52 µM (inactive)
GI50 [4]: 2.21 µM (inactive)
GI50 [5]: 2.3 µM (inactive)
GI50 [6]: 4.57 µM (inactive)
GI50 [7]: 3.13 µM (inactive)
GI50 [8]: 2.94 µM (inactive)
GI50 [9]: 3.65 µM (inactive)
GI50 [10]: 5.55 µM (inactive)
GI50 [11]: 4.59 µM
GI50 [12]: 3.4 µM (inactive)
GI50 [13]: 7.31 µM (inactive)
GI50 [14]: 5.15 µM (inactive)
GI50 [15]: 3.34 µM (inactive)
GI50 [16]: 2.12 µM (inactive)
GI50 [17]: 3.04 µM (inactive)
GI50 [18]: 3.4 µM (inactive)
GI50 [19]: 3.03 µM (inactive)
GI50 [20]: 3.69 µM (inactive)
GI50 [21]: 22 µM (inactive)
GI50 [22]: 3.33 µM (inactive)
GI50 [23]: 2.01 µM (inactive)
GI50 [24]: 3.57 µM (inactive)
GI50 [25]: 2.32 µM (inactive)
GI50 [26]: 3.22 µM (inactive)
GI50 [27]: 2.92 µM (inactive)
GI50 [28]: 21.4 µM (inactive)
GI50 [29]: 2.52 µM (inactive)
GI50 [30]: 2.53 µM (inactive)
GI50 [31]: 28 µM (inactive)
GI50 [32]: 2.8 µM (inactive)
GI50 [33]: 3.17 µM (inactive)
GI50 [34]: 1.76 µM (inactive)
GI50 [35]: 13.9 µM (inactive)
GI50 [36]: 5.06 µM (inactive)
GI50 [37]: 3.39 µM (inactive)
GI50 [38]: 6.9 µM (inactive)
GI50 [39]: 2.67 µM (inactive)
GI50 [40]: 1.53 µM (inactive)
GI50 [41]: 11.7 µM (inactive)
GI50 [42]: 3.49 µM (inactive)
GI50 [43]: 27 µM (inactive)
GI50 [44]: 3.93 µM (inactive)
GI50 [45]: 2.84 µM (inactive)
GI50 [46]: 7.13 µM (inactive)
GI50 [47]: 1.11 µM (active)
GI50 [48]: 11.8 µM (inactive)
GI50 [49]: 4.36 µM (inactive)
GI50 [50]: 3.33 µM (inactive)
GI50 [51]: 1.83 µM (inactive)

COc1cccc(CC(C)NCC(O)c2ccc(O)c(O)c2)c1 (configuration not stated)
GI50 [1]: 37.8 µM (inactive)
GI50 [2]: > 100 µM (inactive)
GI50 [3]: 57 µM (inactive)
GI50 [4]: 36.6 µM (inactive)
GI50 [5]: 42.7 µM (inactive)
GI50 [6]: 35 µM (inactive)
GI50 [7]: 21 µM (inactive)
GI50 [8]: 19 µM (inactive)
GI50 [9]: 31.9 µM (inactive)
GI50 [10]: 57.3 µM (inactive)
GI50 [52]: 28.8 µM (inactive)
GI50 [11]: 44.6 µM
GI50 [12]: 34.8 µM (inactive)
GI50 [13]: 6.59 µM (inactive)
GI50 [53]: > 100 µM (inactive)
GI50 [14]: 57.1 µM (inactive)
GI50 [15]: 92 µM (inactive)
GI50 [16]: 94.4 µM (inactive)
GI50 [17]: 55.5 µM (inactive)
GI50 [18]: 43.3 µM (inactive)
GI50 [19]: 38 µM (inactive)
GI50 [20]: 41.8 µM (inactive)
GI50 [21]: 10.8 µM (inactive)
GI50 [22]: 44.4 µM (inactive)
GI50 [23]: 14 µM (inactive)
GI50 [24]: 43.5 µM (inactive)
GI50 [25]: 24.8 µM (inactive)
GI50 [26]: 33.7 µM (inactive)
GI50 [54]: 51.6 µM (inactive)
GI50 [27]: 34.8 µM (inactive)
GI50 [28]: > 100 µM (inactive)
GI50 [29]: 26.6 µM (inactive)
GI50 [30]: 18.5 µM (inactive)
GI50 [31]: 17.3 µM (inactive)
GI50 [32]: 18.7 µM (inactive)
GI50 [33]: 46.1 µM (inactive)
GI50 [34]: 39.2 µM (inactive)
GI50 [35]: > 100 µM (inactive)
GI50 [36]: 50.5 µM (inactive)
GI50 [37]: > 100 µM (inactive)
GI50 [55]: 37.2 µM (inactive)
GI50 [38]: 52.1 µM (inactive)
GI50 [39]: > 100 µM (inactive)
GI50 [40]: 60.3 µM (inactive)
GI50 [41]: 16.6 µM (inactive)
GI50 [42]: 25 µM (inactive)
GI50 [43]: 32.3 µM (inactive)
GI50 [44]: 19 µM (inactive)
GI50 [45]: 17.4 µM (inactive)
GI50 [46]: 33 µM (inactive)
GI50 [47]: 25.3 µM (inactive)
GI50 [48]: 25.6 µM (inactive)
GI50 [49]: 45.6 µM (inactive)
GI50 [50]: 34.1 µM (inactive)
GI50 [56]: 37.5 µM (inactive)
GI50 [51]: 39.3 µM (inactive)

CC1=NN(c2nc(N)nc(CO)n2)C(C)(C)C1
GI50 [1]: > 100 µM (inactive)
GI50 [2]: > 100 µM (inactive)
GI50 [3]: > 100 µM (inactive)
GI50 [4]: > 100 µM (inactive)
GI50 [5]: > 100 µM (inactive)
GI50 [6]: > 100 µM (inactive)
GI50 [7]: > 100 µM (inactive)
GI50 [8]: > 100 µM (inactive)
GI50 [9]: > 100 µM (inactive)
GI50 [10]: > 100 µM (inactive)
GI50 [57]: > 100 µM (inactive)
GI50 [52]: > 100 µM (inactive)
GI50 [11]: > 100 µM
GI50 [58]: > 100 µM (inactive)
GI50 [12]: > 100 µM (inactive)
GI50 [13]: > 100 µM (inactive)
GI50 [53]: > 100 µM (inactive)
GI50 [14]: > 100 µM (inactive)
GI50 [15]: > 100 µM (inactive)
GI50 [16]: > 100 µM (inactive)
GI50 [17]: > 100 µM (inactive)
GI50 [18]: > 100 µM (inactive)
GI50 [19]: > 100 µM (inactive)
GI50 [20]: > 100 µM (inactive)
GI50 [21]: > 100 µM (inactive)
GI50 [22]: > 100 µM (inactive)
GI50 [23]: > 100 µM (inactive)
GI50 [25]: > 100 µM (inactive)
GI50 [26]: > 100 µM (inactive)
GI50 [27]: > 100 µM (inactive)
GI50 [28]: > 100 µM (inactive)
GI50 [29]: > 100 µM (inactive)
GI50 [30]: > 100 µM (inactive)
GI50 [31]: > 100 µM (inactive)
GI50 [32]: > 100 µM (inactive)
GI50 [33]: > 100 µM (inactive)
GI50 [34]: > 100 µM (inactive)
GI50 [35]: > 100 µM (inactive)
GI50 [36]: > 100 µM (inactive)
GI50 [37]: > 100 µM (inactive)
GI50 [55]: > 100 µM (inactive)
GI50 [38]: > 100 µM (inactive)
GI50 [39]: > 100 µM (inactive)
GI50 [40]: > 100 µM (inactive)
GI50 [41]: > 100 µM (inactive)
GI50 [42]: > 100 µM (inactive)
GI50 [43]: > 100 µM (inactive)
GI50 [44]: > 100 µM (inactive)
GI50 [46]: > 100 µM (inactive)
GI50 [47]: > 100 µM (inactive)
GI50 [48]: > 100 µM (inactive)
GI50 [49]: > 100 µM (inactive)
GI50 [50]: > 100 µM (inactive)
GI50 [56]: > 100 µM (inactive)
GI50 [51]: > 100 µM (inactive)
